Reference: patent US20240390371A1, “HETEROARYL AND HETEROCYCLIC COMPOUNDS FOR TREATING ACUTE INFLAMMATION” (TES Pharma S.r.l., priority 2023, published 2024)

What was measured:
Kupffer cells [1] = assay: Gene expression in Kupffer cells after LPS-induced inflammation; type: cell-based, mouse; conditions: compound 10 μM
Procedure: […] stimulated with LPS overnight […] (1 mg/mL stock solution in H2O, dispensed at 50 ng/mL in the well) final concentration. Cells treated with DMSO were used as control at the final concentration of 0.5% in medium. All the wells were normalized with DMSO at 0.5% final concentration. The supernatant was collected to measure cytokine secretion using a Bio-Plex Pro mouse cytokine 23-plex assay system (cat #M60009RDPD) using a Bio-Plex Instrument. The cells were washed once with PBS, and then lysed to extract total RNA for performing RT-PCR to evaluate ACMSD modulation of IL-10, SIRT1, and STAT3 gene expression.
Briefly, total RNA was extracted from the cells using the manufacturer's protocol for Qiagen RNeasy Plus Mini Kit (cat. 74134). The total RNA concentration was quantified using an Implen Instrument, and the purity was evaluated by measuring the ratio of A260/A280.
Total RNA (1 μg) was reverse transcribed using the manufacturer's protocol for SuperScript IV VILO Master Mix (ThermoFisher cat. #. 11756500). Real-time PCR was then performed in CFX 96 Real Time System (Bio-Rad) as follows: denaturation at 95° C. for 2 minutes, followed by 40 cycles at 95° C. for 10 s, and hybridization at 60° C. for 20 s. QPCR was performed using the 2× QuantiNova SYBR Green PCR Master Mix (Qiagen). Mouse β2 microglobulin (m β2M) was used as a reference gene.
Following inflammation induced by LPS (Kupffer cells treated with LPS 50 ng/mL […] incubation time) ACMSD inhibition, with compound I-34, reverses the changes in the expression of inflammatory modulators. Expression of pro-inflammatory genes is reduced (TNF-α, IL-6, and iNOS) and that of anti-inflammatory genes is increased (Arg-1, IL-10, and MRC2) by ACMSD inhibition.

HK-2 cells [2] = assay: Gene expression in HK-2 cells after LPS stimulus; type: cell-based
Procedure: ((N=3) One way Anova: Dunnett's test: **p<0.01 vs pathological control.)
ACMSD inhibition, with compound I-34, decreased inflammatory gene expression (IL-6 and TNF-α) in HK-2 cells following an 18 h stimulus with 30 μg/ml of LPS.

Kupffer cells [3] = assay: Cytokine secretion in Kupffer cells exposed to LPS; type: cell-based, mouse; conditions: LPS 24 h, compound 1 μM
Excerpt: […] Cells treated with DMSO were used as control at the final concentration of 0.5% in medium. All the wells were normalized with DMSO at 0.5% final concentration. The supernatant was collected to measure cytokine secretion using a Bio-Plex Pro mouse cytokine 23-plex assay system (cat #M60009RDPD) using a Bio-Plex Instrument. The cells were washed once with PBS, and then lysed to extract total RNA for performing RT-PCR to evaluate ACMSD modulation of IL-10, SIRT1, and STAT3 gene expression.
All cytokine secretion values were normalized to the luminescent signal relative to the measuring of the cellular ATP (CellTiter-Glo cat #G7571)).
(§1) (One way Anova: Dunnett's test: **p<0.01, ***p<0.001; vs pathological control.)

HK-2 cells [4] = assay: Fibrotic gene expression in HK-2 cells after TGFβ insult; type: cell-based; conditions: pre-treatment, TGFβ insult at 10 ng/mL
Excerpt: (§2) ((N=3) One way Anova: Dunnett's test: **p<0.01, ***p<0.001; vs pathological control.)

[5] = test system: mouse primary hepatocytes and murine stellate cells; assay: Gene expression in co-cultured mouse primary hepatocytes and murine stellate cells exposed to free fatty acids; type: cell-based; conditions: co-culture exposed to free fatty acids (MIX)
Excerpt: Mouse primary hepatocytes and murine stellate cells were co-cultured with FFA to induce fibrosis as observed in NASH patients.
as §1

[6] = test system: 3D human liver microtissues; assay: Cytokine expression and secretion in 3D human liver microtissues (organoids); type: cell-based; conditions: free fatty acids mix and LPS 10 μg/mL, compound 10 and 50 μM, dose-response manner
Procedure: 3D InSight™ Human Liver Microtissues (organoids) composed of multi-donor primary human hepatocytes in co-culture with Non-Parenchymal Cells (NPC), containing primary human Kupffer cells and primary Liver Endothelial Cells (LEC) were provided by Insphero, Switzerland. These human liver organoids to evaluate the anti-inflammatory effect of ACMSD inhibition.
The organoids were treated with free fatty acids (palmitic acid and oleic acid according to manufacturer's instructions) and lipopolisaccaride (LPS) in a diabetic medium (Insphero) at the concentration of 10 μg/mL to induce lipid accumulation in hepatocytes and pro-inflammatory cytokine secretion including; TNF-α, IL-6, IL-8, MCP-1, and MIP1α. Vehicle control solution was prepared as negative control. DMSO was maintained constant concentration of 0.1% total solution.
Two concentrations of compound I-34 (10 μM and 50 μM) were used and added together with the NASH stimuli mix. Cytokine secretion was measured in cell medium at day 4 following treatment using the Bio-Plex Pro Human Cytokine Screening Panel (Bio-Rad) according to manufacturer's instructions.
3D human liver microtissues were treated with vehicle (DMSO), a mix of free fatty acids and LPS (10 μg/mL) and mix together with two concentrations of compound I-34 (10 and 50 μM). […]

[7] = test system: HK-2 proximal tubule cells; assay: Cisplatin-induced apoptosis (Caspases 3/7 activity) in HK-2 cells; type: cell-based; conditions: Cisplatin 50 μM; compound 10, 50 and 100 μM added 1 hr before Cisplatin injury
Excerpt: as §2

[8] = 18 h stimulus with 30 μg/ml LPS, compound 100 μM

N#Cc1c(Cc2ccccc2)nc(SCc2cccc(-c3nnn[nH]3)c2)[nH]c1=O [Compound I-34, 4-Benzyl-6-oxo-2-[3-(1H-tetrazol-5-yl)-benzylsulfanyl]-1,6-dihydro-pyrimidine-5 carbonitrile]
Expression of anti-inflammatory genes (Arg-1, IL-10, and MRC2) (Kupffer cells [1]; LPS 50 ng/mL): increased | Expression of pro-inflammatory genes (TNF-α, IL-6, and iNOS) (Kupffer cells [1]; LPS 50 ng/mL): reduced | QPRT expression (Kupffer cells [1]; LPS): reversed LPS-induced reduction of QPRT expression | ACMSD expression (HK-2 cells [2]; [8]): does not significantly affect | Inflammatory gene expression (IL-6 and TNF-α) (HK-2 cells [2]; [8]): decreased | Inflammatory gene expression (IL-6 and TNF-α), dose response (HK-2 cells [2]; 18 h stimulus with 30 μg/ml LPS, several concentrations): decreased inflammatory gene expression (IL-6 and TNF-α) in a dose response manner | QPRT expression (HK-2 cells [2]; LPS 18 h, compound 100 μM): reversed LPS-induced reduction of QPRT expression | Secretion of pro inflammatory cytokines (IL-1β, IL-6, TNF-α) (Kupffer cells [3]): decreased | Fibrotic gene expression (Fibronectin and TIMP2) (HK-2 cells [4]): decreased fibrotic gene expression (Fibronectin and TIMP2) in a dose response manner | Expression of pro-fibrotic and pro-inflammatory genes [5]: decreased | Cytokine secretion (hepatic inflammation) ([6]; day 4): reducing | Cytokine expression (hepatic inflammation) [6]: reducing | Cisplatin-induced apoptosis (Caspases 3/7 activity) [7]: provides protection
